Earlier results, collected in US20190167612A1, “PHARMACEUTICAL FORMULATION FOR ORAL ADMINISTRATION WITH CONTROLLED DISSOLUTION RATE COMPRISING SUSTAINED-RELEASE PELLETS CONTAINING TAMSULOSIN HYDROCHLORIDE” (HANMl PHARM. CO., LTD., priority 2016, published 2019).
Counter-ions that a name gives are not always drawn.

Experiments:
[1] = in vivo

Bioavailability [1]: ≥ 90%
Solubility in water: slight solubility in water
Compound: CCOc1ccccc1OCCN[C@H](C)Cc1ccc(OC)c(S(N)(=O)=O)c1 [Tamsulosin hydrochloride, (R)-5-[2-[[2-(2-ethoxyphenoxy)ethyl]-amino]propyl]-2-methoxy-benzenesulfonamide]
